Measurements as given in patent US20240050463A1, “THERAPEUTIC COMPOSITIONS AND METHODS FOR TREATING HEPATITIS B” (ARBUTUS BIOPHARMA CORPORATION, priority 2016, published 2024).
Like-named read-outs stand apart in the source and are kept apart here.

How the values were obtained:
[1] = system: HBV rcDNA in HepDE19 cells; assay: Inhibition of rcDNA in HepDE19 cells (bDNA assay), checkerboard, MacSynergy II; format: cell-based, HBV (human hepatoma cell line); parameters: key to ADDITIVE INHIBITION: % inhibition of rcDNA production; details: for ADDITIVE INHIBITION: GLS-4 0 μM; for inhibition at 0.000125 µM: ETV 0.125 nM alone
Protocol: In vitro combination studies were conducted using the method of Prichard and Shipman (Prichard M N, and Shipman C Jr., Antiviral Research, 1990, 14(4-5), 181-205; and Prichard M N, et. al., MacSynergy II). HepDE19 cell culture system is a HepG2 (human hepatocarcinoma) derived cell line that supports HBV DNA replication and cccDNA formation in a tetracycline (Tet)-regulated manner and produces HBV rcDNA and a detectable reporter molecule dependent on the production and maintenance of cccDNA (Guo et al 2007. J. Virol 81:12472-12484). HepDE19 (50,000 cells/well) were plated in 96 well collagen-coated tissue-culture treated microtiter plates in DMEM/F12 medium supplemented with 10% fetal bovine serum, 1% penicillin-streptomycin and 1 μg/ml tetracycline and incubated in a humidified incubator at 37° C. and 5% CO2 overnight. Next day, the cells were switched to fresh medium without tetracycline and incubated for 4 hrs at 37° C. and 5% CO2. […] The two inhibitors were tested both singly as well as in combinations in a checkerboard fashion such that each concentration of inhibitor A was combined with each concentration of inhibitor B to determine their combination effects on inhibition of rcDNA production. Following a 7 day-incubation of cells with compound combinations, the level of rcDNA present in the inhibitor-treated wells was measured using a Quantigene 2.0 bDNA assay kit (Affymetrix, Santa Clara, CA) with HBV specific custom probe set and manufacturers instructions. […] The RLU data from the single compound treated cells were analyzed using XL-Fit module in Microsoft Excel to determine EC50 values using a 4-parameter curve fitting algorithm. Concurrently, the effect of compounds on cell viability was assessed using replicate plates, plated at a density of 5,000 cells/well and incubated for 4 days, to determine the ATP content as a measure of cell viability using the cell-titer glo reagent (CTG; Promega Corporation, Madison, WI) as per manufacturer's instructions.
In vitro combination studies were conducted using the method of Prichard and Shipman (Prichard M N, Shipman C, Jr., Antiviral Res, 14, 181-205 (1990)). The HepDE19 cell line was developed as described in Guo et al. (Guo et al., J Virol, 81, 12472-12484 (2007)). It is a human hepatoma cell line stably transfected with the HBV genome, and which can express HBV pregenomic RNA and support HBV rcDNA (relaxed circular DNA) synthesis in a tetracycline-regulated manner. HepDE19 cells were plated in 96 well tissue-culture treated microtiter plates in DMEM/F12 medium supplemented with 10% fetal bovine serum+1% penicillin-streptomycin without tetracycline and incubated in a humidified incubator at 37° C. and 5% CO2 overnight. […] The two inhibitors were tested both singly as well as in combinations in a checkerboard fashion such that each concentration of inhibitor A was combined with each concentration of inhibitor B to determine their combination effects on inhibition of rcDNA production. Following a 48 hour-incubation, the level of rcDNA present in the inhibitor-treated wells was measured using a bDNA assay (Affymetrix) with HBV specific custom probe set and manufacturers instructions. […] Concurrently, the effect of inhibitor combinations on cell viability was assessed using replicate plates that were used to determine the ATP content as a measure of cell viability using the Cell-TiterGlo reagent (Promega) as per manufacturer's instructions.
In vitro combination studies were conducted using the method of Prichard and Shipman (1990) (Prichard M N, Shipman C, Jr. 1990. A three-dimensional model to analyze drug-drug interactions. Antiviral Res 14:181-205 AND Prichard M N. 1992. MacSynergy II, University of Michigan).

hepatitis B virus (HBV) = assay: Serum HBV DNA in mouse model of HBV (pHBV1.3 hydrodynamic injection), quantitative PCR; format: in vivo, NOD.CB17-Prkdc^scid/J mice; details: mean ± SEM
Protocol: A mouse model of hepatitis B virus (HBV) was used to assess the anti-HBV effects of a small molecule inhibitor of HBV encapsidation (Compound 3) and HBV-targeting siRNAs, both as independent treatments and in combination with each other.
On Day −7, 10 micrograms of the plasmid pHBV1.3 (as per Guidotti, L., et al., Journal of Virology, 1995, 69(10): 6158-6169) was administered to NOD.CB17-Prkdc^scid/J mice via hydrodynamic injection (HDI; rapid 1.6 mL injection into the tail vein). […] As a readout of the anti-HBV effect of various treatments, serum HBV DNA concentration in mice was measured from total extracted DNA using a quantitative PCR assay (primer/probe sequences from Tanaka, Y., et al., Journal of Medical Virology, 2004, 72: 223-229).
Animals were treated with Compound 3 as follows: Starting on Day 0, a 50 mg/kg or 100 mg/kg dosage of Compound 3 was administered orally to animals on a twice-daily frequency for a total of fourteen doses between Days 0 and 7. Compound 3 was dissolved in a co-solvent formulation for administration. Negative control animals were administered either the co-solvent formulation alone, or saline. Animals were treated with lipid nanoparticle (LNP)-encapsulated HBV-targeting siRNAs as follows: On Day 0, an amount of test article equivalent to 0.1 mg/kg siRNA was administered intravenously.
The effect of these treatments was determined by collecting blood on Days 0 (pre-treatment), 4 & 7 and analyzing it for serum HBV DNA content.
Animals were treated with Compound 3 as follows: Starting on Day 0, a 100 mg/kg dosage of Compound 3 was administered orally to animals on a twice-daily frequency for a total of fourteen doses between Days 0 and 7. Compound 3 was dissolved in a co-solvent formulation for administration. Negative control animals were administered either the co-solvent formulation alone, or saline. Animals were treated with ETV as follows: Starting on Day 0, either a 100 ng/kg or a 300 ng/kg dosage of ETV was administered orally to animals on a once-daily frequency for a total of seven doses between Days 0 and 6. ETV was dissolved in DMSO to 2 mg/mL and then diluted in saline for administration.
The effect of these treatments was determined by collecting blood on Days 0 (pre-treatment), 4 & 7 and analyzing it for serum HBV DNA content. Samples with Ct values below the lower limit of quantitation (LLOQ) were set to one-half LLOQ for calculation of group means.

Question: What does the source list for CC[C@@H](C)NS(=O)(=O)c1ccc(F)c(C(=O)Nc2ccc(F)c(F)c2)c1 [Compound 3]?
Answer: ADDITIVE INHIBITION ([1]; Compound 3 0.040 μM): 11.14; ADDITIVE INHIBITION ([1]; Compound 3 0.110 μM): 19.99; ADDITIVE INHIBITION ([1]; Compound 3 0.330 μM): 56.68; ADDITIVE INHIBITION ([1]; Compound 3 1.000 μM): 86.87; Serum HBV DNA as percentage of individual pre-treatment baseline (hepatitis B virus (HBV); Table 2, Day 0 (pre-treatment), Compound 3 50 mg/kg oral twice daily, alone or with HBV siRNA 0.1 mg/kg IV Day 0): 100 ± 0%; Serum HBV DNA as percentage of individual pre-treatment baseline (hepatitis B virus (HBV); Table 2, Day 0 (pre-treatment), Compound 3 100 mg/kg oral twice daily, alone or with HBV siRNA 0.1 mg/kg IV Day 0): 100 ± 0%; Serum HBV DNA as percentage of individual pre-treatment baseline (hepatitis B virus (HBV); Table 3, Day 0 (pre-treatment), Compound 3 100 mg/kg oral twice daily alone): 100 ± 0%

Question: Which results are given for C=C1[C@H](CO)[C@@H](O)C[C@@H]1n1cnc2c(=O)[nH]c(N)nc21 [ETV, Entecavir]?
Answer: inhibition at 15.63 pM ([1]; Hepatitis B virus, HepDE19, ETV 0.015625 nM alone, read-out: Additive inhibition (rcDNA)): -43.7%; inhibition at 16 pM ([1]; Hepatitis B virus, HepDE19, ETV 0.016 nM alone): -43.7%; inhibition at 31 pM ([1]; Hepatitis B virus, HepDE19, ETV 0.031 nM alone): -50.1%; inhibition at 31.25 pM ([1]; Hepatitis B virus, HepDE19, ETV 0.03125 nM alone, read-out: Additive inhibition (rcDNA)): -50.1%; inhibition at 62.5 pM ([1]; Hepatitis B virus, HepDE19, ETV 0.0625 nM alone, read-out: Additive inhibition (rcDNA)): -30.3%; inhibition at 63 pM ([1]; Hepatitis B virus, HepDE19, ETV 0.063 nM alone): -30.3%; inhibition at 0.000125 µM ([1]; Hepatitis B virus, HepDE19, read-out: Additive inhibition (rcDNA)): -23.5%; inhibition at 0.000125 µM ([1]; Hepatitis B virus, HepDE19, read-out: Average % inhibition (rcDNA)): -23.5%; inhibition at 0.00025 µM ([1]; Hepatitis B virus, HepDE19, ETV 0.25 nM alone, read-out: Additive inhibition (rcDNA)): -21.2%; inhibition at 0.00025 µM ([1]; Hepatitis B virus, HepDE19, ETV 0.250 nM alone, read-out: Average % inhibition (rcDNA)): -21.2%; inhibition at 0.0005 µM ([1]; Hepatitis B virus, HepDE19, ETV 0.5 nM alone, read-out: Additive inhibition (rcDNA)): -10.2%; inhibition at 0.0005 µM ([1]; Hepatitis B virus, HepDE19, ETV 0.500 nM alone, read-out: Average % inhibition (rcDNA)): -10.2%; inhibition at 0.001 µM ([1]; Hepatitis B virus, HepDE19, ETV 1 nM alone, read-out: Additive inhibition (rcDNA)): 41.7%; inhibition at 0.001 µM ([1]; Hepatitis B virus, HepDE19, ETV 1.000 nM alone, read-out: Average % inhibition (rcDNA)): 41.7%; inhibition at 0.002 µM ([1]; Hepatitis B virus, HepDE19, ETV 2 nM alone, read-out: Additive inhibition (rcDNA)): 58.4%; inhibition at 0.002 µM ([1]; Hepatitis B virus, HepDE19, ETV 2.000 nM alone, read-out: Average % inhibition (rcDNA)): 58.4%; inhibition at 0.004 µM ([1]; Hepatitis B virus, HepDE19, ETV 4 nM alone, read-out: Additive inhibition (rcDNA)): 70%; inhibition at 0.004 µM ([1]; Hepatitis B virus, HepDE19, ETV 4.000 nM alone, read-out: Average % inhibition (rcDNA)): 70%; Serum HBV DNA as percentage of individual pre-treatment baseline (hepatitis B virus (HBV); Table 3, Day 0 (pre-treatment), ETV 100 ng/kg oral once daily, alone or with Compound 3 100 mg/kg oral twice daily): 100 ± 0%; Serum HBV DNA as percentage of individual pre-treatment baseline (hepatitis B virus (HBV); Table 3, Day 0 (pre-treatment), ETV 300 ng/kg oral once daily, alone or with Compound 3 100 mg/kg oral twice daily): 100 ± 0%; Serum HBV DNA as percentage of individual pre-treatment baseline (hepatitis B virus (HBV); Table 3, Day 4, ETV 100 ng/kg oral once daily, alone or with Compound 3 100 mg/kg oral twice daily): 21 ± 5%; Serum HBV DNA as percentage of individual pre-treatment baseline (hepatitis B virus (HBV); Table 3, Day 4, ETV 300 ng/kg oral once daily, alone or with Compound 3 100 mg/kg oral twice daily): 1.6 ± 0.3%; Serum HBV DNA as percentage of individual pre-treatment baseline (hepatitis B virus (HBV); Table 3, Day 7, ETV 100 ng/kg oral once daily, alone or with Compound 3 100 mg/kg oral twice daily): 3.5 ± 0.7%; Serum HBV DNA as percentage of individual pre-treatment baseline (hepatitis B virus (HBV); Table 3, Day 7, ETV 300 ng/kg oral once daily, alone or with Compound 3 100 mg/kg oral twice daily): 0.88 ± 0.31%
